This is an account of results in patent US8309593B2, “2-acylaminopropoanol-type glucosylceramide synthase inhibitors” (Genzyme Corporation, priority 2008, dated 2012).

One data set concerns GM3. Briefly: GM3 Elisa assay. To be noted: Table 3 (title: IC 50 Values); read-out: IC50_uM_Mean. It counts as cell-based. How it is done: B16-FO cells from ATCC (American Tissue Culture Collection) were grown in DMEM media (ATCC) with 10% Fetal Bovine Serum (Hyclone) and Pen/Step/Glutamine (Biowhittaker). 4000 cells per well were plated on collagen coated plates (BD) and allowed to attach for 6 hours in an incubator (37 degrees, 5% CO2). After 6 hours the compounds and controls were added to the wells, the plates mixed and returned to the incubator for 2 days. Day of assay the cells were fixed for 20 minutes with 1% formaldehyde and then washed with Tris Buffered Saline (TBS) 3 times, 150 μl of TBS was left in the wells and 50 μl of goat serum (Invitrogen) was added, the plates mixed and incubated for 1 hour at room temperature. The plates were flicked and the cells incubated with the monoclonal Antibody to GM3 (NeuAc) (Cosmo) for 45 minutes as room temperature. The plates were then washed 3 times with TBS, leaving 150 μl of TBS in the wells and Peroxidase AffinPure F (ab′) 2 frag Gt Anti-mouse IgM, μ Chain Specific (Jackson Immuno Research) was added in 50 μl, the plates mixed and incubated for 45 minutes at room temperature. The plates were washed 3 times with TBS, flicked and blotted and 100 μl of Quantablu (Pierce) was added to the wells and incubated for 1 hour then read on a Fluorometer at Ex 325 and Em 420. The data was then analyzed using standard programs.

The next data set has as its system jck mice. In words: PKD mouse model (jck mice, compound in feed). It counts as in vivo. Particulars: for BUN / Body weight / Cystic volume / K/BW ratio: 0.225% Compound A in feed. How it is done:
jck mice was administered Compound A ad libitum in feed (0.225% Compound A mixed with a standard diet chow in powdered format) from 26-64 days of age. Control jck mice were fed a control powdered diet from 26-64 days of age. At 63 days of age, animals were transferred to metabolic cages for 24 hour urine collection. At 64 days of age, animals were sacrificed by CO2 administration. Blood was collected by heart puncture for serum isolation. Kidneys were isolated and bisected; half of each kidney was fixed in 4% paraformaldehyde in PBS overnight for paraffin embedding and H&E staining.
Total body weight and kidney weight were determined at sacrifice.
Cyst volume was measured by quantitating the percentage of cystic area in histological sections of kidneys from the treated and control animals, multiplied by the kidney/body weight ratio.
Blood urea nitrogen (BUN) levels were determined in serum samples derived from animals at sacrifice.

Setting [1] is: female jck mice, 26-64 days of age.
Setting [2] is: male jck mice, 26-64 days of age.

SMILES strings stand for the structures. Bounds are passed on as bounds.

As for `COc1ccc(OCC[C@H](O)N[C@H](CN2C(C)CCCC2C)C(O)c2ccc3c(c2)OCCO3)cc1` (stereo partly drawn) [Compound 598], in the data set on GM3, the IC50 was 3 to 10 µM.
As for `COc1ccc(C(=O)CCCCCC(=O)N[C@H](CN2C(C)CCC[C@H]2C)[C@@H](O)c2ccc3c(c2)OCCO3)cc1` (stereo partly drawn) [Compound 602], the IC50 in the data set with GM3 is 3 to 10 µM.
As for `O=C(N[C@H](CN1CCCC1)[C@@H](O)c1ccc2c(c1)OCCO2)C1(C(F)(F)F)CCC1` [Compound 614], the IC50 in the data set with GM3 lay within 3 to 10 µM.
In the case of `O=C(CC(F)(F)F)N[C@H](CN1CCCC1)[C@@H](O)c1ccc2c(c1)OCCO2` [Compound 624], the IC50 in the data set on GM3 was in the range of 3 to 10 µM.
Regarding `O=C(CCCCCC(=O)c1ccc(F)cc1)N[C@H](CN1CCCC1)[C@@H](O)c1ccc2c(c1)OCCO2` [Compound 628], in the data set on GM3, the IC50 was no more than 0.1 µM.
Consider `CC(O)(CCCCCC(=O)N[C@H](CN1CCCC1)[C@@H](O)c1ccc2c(c1)OCCO2)C1CCCC1` (stereo partly drawn) [Compound 633], for which, in the data set on GM3, the IC50 was 0.1 to 1 µM.
As to `O=C(CCCCCCOCC(F)(F)F)N[C@H](CN1CCCC1)[C@@H](O)c1ccc2c(c1)OCCO2` [Compound 634], in the data set with GM3, the IC50 lay within 0.1 to 1 µM.
In the case of `O=C(N[C@H](CN1CCCC1)[C@H](O)c1ccc2c(c1)OCCO2)[C@H]1CC[C@@H](C(=O)c2ccc(F)cc2)C1` [Compound 635], the IC50 with GM3 lay within 3 to 10 µM.
Same read-out and setting: for `CC(O)(CCCCCC(=O)N[C@H](CN1CCCC1)[C@@H](O)c1ccc2c(c1)OCCO2)C1CCCCC1` (stereo partly drawn) [Compound 641] the value was no more than 0.1 µM.
In the case of `Cc1noc(CCCCC(=O)N[C@@H](CN2CCCC2)C(O)c2ccc3c(c2)OCCO3)n1` (stereo partly drawn) [Compound 652], the IC50 with GM3 lay in the range of 3 to 10 µM.
As to `O=C(CCCCCC(=O)c1ccc(F)cc1)NC(CN1CC[C@H](O)C1)[C@H](O)c1ccc2c(c1)OCCO2` (stereo partly drawn) [Compound 653], in the data set on GM3, the IC50 is no more than 0.1 µM.
Still for that read-out and setting: for `O=C(CCCOc1ccc(F)cc1)N[C@@H](CN1CC[C@H](O)C1)[C@H](O)c1ccc2c(c1)OCCO2` [Compound 656] the value was no more than 0.1 µM.
In the case of `CCCCOc1ccc([C@@H](O)[C@@H](CN2CCC(F)C2)NC(=O)CCCCC(=O)c2ccc(F)cc2)cc1` (stereo partly drawn) [Compound 658], in the data set with GM3, the IC50 was 0.1 to 1 µM.
On to `CC(=O)CCCCCC(=O)N[C@H](CN1CCCC1)[C@@H](O)c1ccc(OC(F)(F)F)cc1` [Compound 665], for which the IC50 with GM3 lay in the range of 3 to 10 µM.
Take `COc1ccc(C(=O)CCCCCC(=O)N[C@H](CN2CCCC2)[C@@H](O)c2ccc(OC(F)(F)F)cc2)cc1` [Compound 666]: the IC50 in the data set on GM3 is 0.1 to 1 µM.
As to `CCCCCCCC(=O)N[C@H](CN1CCCC1)[C@@H](O)c1ccc(OC(F)(F)F)cc1` [Compound 667], in the data set on GM3, the IC50 lay within 0.1 to 1 µM.
For the molecule `COc1cc([C@H](O)[C@@H](CN2CCCC2)NC(=O)CCCCCC(C)=O)cc(OC)c1OC` [Compound 671], the IC50 with GM3 fell in the range of 3 to 10 µM.
Turning to `COc1ccc(OCCC(=O)N[C@@H](CN2CCCC2)[C@@H](O)c2ccc3c(c2)OCCO3)cc1` [Compound 674], the IC50 with GM3 lay within 3 to 10 µM.
On to `COc1ccc(OCCC(=O)N[C@@H](CN2CCCC2)[C@@H](O)c2ccc3c(c2)OCCO3)cc1` [Compound 675], for which, in the data set on GM3, the IC50 was in the range of 3 to 10 µM.
Same read-out and setting: for `COc1ccc(OCCC(=O)N[C@H](CN2CCCC2)[C@@H](O)c2ccc3c(c2)OCCO3)cc1` [Compound 676] the value was 3 to 10 µM; for `CCCCCCCCCCCCCCCCC(=O)N[C@H](CN(C)Cc1ccco1)[C@H](O)c1ccc2c(c1)OCCO2` [Compound 683], 3 to 10 µM.
Same read-out and setting: for `CCCCCCCCCCCCCCCC(=O)N[C@H](CN(C)C(C)C)[C@H](O)c1ccc2c(c1)OCCO2` [Compound 684] the value was 0.1 to 1 µM.
With `CCCCCCCCCCCCCCCC(=O)N[C@H](CN(C)C1CCCC1)C(O)c1ccc2c(c1)OCCO2` (stereo partly drawn) [Compound 685], the IC50 with GM3 was 3 to 10 µM.
For the molecule `CCCCCCCCC(=O)N[C@H](CN1CCCC1)[C@H](O)c1ccc2c(c1)OCCO2` [Compound A, N-((1R,2R)-1-(2,3-dihydrobenzo[b][1,4]dioxin-6-yl)-1-hydroxy-3-(pyrrolidin-1-yl)propan-2-yl)nonanamide], in the data set with jck mice (setting [1]), the BUN was found to be 34.67 ± 9.41 mg/dL, the Body weight amounted to 15.93 ± 1.65 g, the Cystic volume is listed as 0.58 ± 0.29 % BW and the K/BW ratio came to 3.57 ± 0.58 %. For the same molecule, in the data set on jck mice (jck mice, 0.225% in feed, 26-64 days of age, at sacrifice, vs control, p-value<0.05, two-tailed t-test), the total body weight entry is given as “statistically significant decrease”. Besides, the cyst volume entry in the data set on jck mice (jck mice, 0.225% in feed, 26-64 days of age, percentage cystic area x kidney/body weight ratio, vs control, p-value<0.05) is reported as “significant decrease”. For the same molecule, the “Blood urea nitrogen (BUN) levels” value with jck mice (jck mice, 0.225% in feed, 26-64 days of age, serum at sacrifice, vs untreated controls, p-value<0.05) is listed as “significant reduction”. In addition, the cystic disease result with jck mice (jck mice, 0.225% in feed, as measured by kidney/body weight ratio and cyst volume, males and females) is “statistically significant reduction”. In addition, the renal function result in the data set with jck mice (jck mice, 0.225% in feed, treated animals relative to controls, males and females) was “improved renal function”. Moreover, in the data set with jck mice (setting [2]), the BUN turned out to be 39.25 ± 10.70 mg/dL, the Body weight is recorded as 18.43 ± 1.82 g, the Cystic volume stood at 0.88 ± 0.23 % BW and the K/BW ratio was determined as 4.46 ± 0.46 %.
